Measured values as given in ChEMBL document CHEMBL1201862, “PubChem BioAssay data set” (2004).
Calls of active or inactive are those of the source.

What was measured:
[1] = target: Mu-type opioid receptor (Homo sapiens, UniProt P35372); type: functional, cell-based;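 note: U2OS cells with beta-arrestin recruitment to OPRM1 by beta-gal complementation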
[2] = target: 5-hydroxytryptamine receptor 2A (Mus musculus, UniProt P35363); type: functional, cell-based;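 note: CHO-K1 cells with tagged receptor and beta-arrestin; agonist potency measured as compound-induced activation of the receptor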
[3] = luciferase reporter signal suppression in cells – H4 neuroglioma cells, luminescence, dose response (AID 1990); type: functional, cell-based
[4] = alpha-synuclein stem-loop luciferase translation blockers – H4 neuroglioma cells, luminescence, confirmation (AID 1988); type: functional, cell-based
[5] = Luminescence Cell-Based Dose Response HTS to Identify Inhibitors of 5'UTR Stem-Loop Driven Prion Protein mRNA Translation in H4 Neuroglioblastoma Cells. [Related pubchem assays: 1827 (Project Summary), 1813 (Primary HTS)]; type: functional
[6] = target: Beta-galactosidase (Escherichia coli, UniProt Q8VNN2); assay: PubChem AID 485352; type: functional
[7] = target: T1, Heat shock factor protein 1 (Mus musculus, UniProt P38532); assay: enhancement of HSF1-driven luciferase signal – cell-based, NIH3T3, luminescence, dose retest, confirmation (AID 435004); type: functional;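 note: stress induced by proteasome inhibitor MG132 added 30 min after compound; luciferase reporter driven by HSF1 response element in NIH3T3 cells; actives raise luminescence as potentiators of the MG132 stress response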
T1 sequence (P38532 whole entry): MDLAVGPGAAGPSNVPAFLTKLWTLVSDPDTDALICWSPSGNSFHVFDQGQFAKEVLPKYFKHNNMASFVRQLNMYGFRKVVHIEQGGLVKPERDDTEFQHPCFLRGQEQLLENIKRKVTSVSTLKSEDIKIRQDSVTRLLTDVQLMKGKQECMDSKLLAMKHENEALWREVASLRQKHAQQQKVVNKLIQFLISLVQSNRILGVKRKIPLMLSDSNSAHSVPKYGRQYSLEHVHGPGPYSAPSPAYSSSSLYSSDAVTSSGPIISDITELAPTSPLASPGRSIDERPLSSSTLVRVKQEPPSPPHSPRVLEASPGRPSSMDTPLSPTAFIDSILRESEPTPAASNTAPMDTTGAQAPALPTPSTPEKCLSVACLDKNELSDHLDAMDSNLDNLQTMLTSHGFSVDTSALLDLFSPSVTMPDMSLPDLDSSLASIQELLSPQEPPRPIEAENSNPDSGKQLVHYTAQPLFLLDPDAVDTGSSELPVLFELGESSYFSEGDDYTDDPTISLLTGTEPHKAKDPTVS

[8] = target: Large T antigen (Simian virus 40, UniProt P03070); type: functional, Betapolyomavirus macacae;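 note: Confirmatory-stage PubChem screen for compounds that inhibit SV40 T antigen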
[9] = target: T2, Type-1 angiotensin II receptor (Homo sapiens, UniProt P30556); assay: antagonism of angiotensin II type 1 receptor – cell-based, uHTS hits, selectivity assay for APJ receptor antagonist project, dose response (AID 463214); type: functional;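 note: antagonist potency against angiotensin II stimulated AT1 response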
T2 sequence (P30556 whole entry): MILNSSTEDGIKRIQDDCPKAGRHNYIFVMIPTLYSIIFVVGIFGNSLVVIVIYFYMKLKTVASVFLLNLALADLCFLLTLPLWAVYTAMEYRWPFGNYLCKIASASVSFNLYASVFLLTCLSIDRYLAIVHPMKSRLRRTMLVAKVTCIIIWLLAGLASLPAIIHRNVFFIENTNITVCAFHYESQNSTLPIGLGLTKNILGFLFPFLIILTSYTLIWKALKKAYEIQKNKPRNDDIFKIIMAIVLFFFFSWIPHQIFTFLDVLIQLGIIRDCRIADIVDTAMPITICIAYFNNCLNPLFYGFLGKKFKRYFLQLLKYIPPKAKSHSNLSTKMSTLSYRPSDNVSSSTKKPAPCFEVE

[10] = target: Photoreceptor-specific nuclear receptor (Homo sapiens, UniProt Q9Y5X4); type: functional, cell-based;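 note: CHO-S cells with Gal4-NCOR and VP16-NR2E3 two-hybrid luciferase reporter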
[11] = target: SWI/SNF-related matrix-associated actin-dependent regulator of chromatin subfamily A member 2 (Homo sapiens, UniProt P51531); assay: Luminescence-based cell-based high throughput dose response assay to identify activators of the function of SWI/SNF related, matrix associated, actin dependent regulator of chromatin, subfamily a, member 2 (SMARCA2, BRM).; type: functional
[12] = Counterscreen for activators of the function of SWI/SNF related, matrix associated, actin dependent regulator of chromatin, subfamily a, member 2 (SMARCA2, BRM): Luminescence-based cell-based high throughput dose response assay to identify non-selective compounds using the VP16 reporter assay.; type: functional
[13] = target: T3, Adenosylmethionine-8-amino-7-oxononanoate aminotransferase (Mycobacterium tuberculosis, UniProt P9WQ81); assay: Mycobacterium tuberculosis BioA enzyme inhibitor Measured in Biochemical System Using Plate Reader - 2163-02_Inhibitor_Dose_CherryPick_Activity.; type: functional, Mycobacterium tuberculosis UT205
T3 sequence (P9WQ81 whole entry): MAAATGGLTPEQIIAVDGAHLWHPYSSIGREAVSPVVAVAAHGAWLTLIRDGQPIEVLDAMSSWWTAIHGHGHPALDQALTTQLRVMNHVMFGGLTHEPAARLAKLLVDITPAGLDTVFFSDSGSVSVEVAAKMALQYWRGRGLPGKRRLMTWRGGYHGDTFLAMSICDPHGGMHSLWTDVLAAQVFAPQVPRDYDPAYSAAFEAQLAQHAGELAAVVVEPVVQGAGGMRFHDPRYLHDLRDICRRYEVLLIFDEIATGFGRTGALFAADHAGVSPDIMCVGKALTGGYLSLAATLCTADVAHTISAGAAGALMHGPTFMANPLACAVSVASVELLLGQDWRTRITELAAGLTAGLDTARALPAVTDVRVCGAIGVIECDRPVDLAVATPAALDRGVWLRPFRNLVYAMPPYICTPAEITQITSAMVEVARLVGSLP

[14] = target: Beta-lactamase (Salmonella choleraesuis (strain SC-B67), UniProt Q5J463); assay: Epi-absorbance-based counterscreen for selective VIM-2 inhibitors: dose response biochemical high throughput screening assay to identify inhibitors of TEM-1 serine-beta-lactamase.
[15] = target: T4, Beta-lactamase (Pseudomonas aeruginosa, UniProt Q79MP6); assay: […] counterscreen for selective VIM-2 inhibitors: dose response biochemical high throughput screening assay to identify inhibitors of IMP-1 metallo-beta-lactamase.
[16] = target: T4, Beta-lactamase; assay: inhibition of IMP-1 beta-lactamase activity – biochemical, epi-absorbance, selectivity assay for VIM-2 inhibitor project, dose response (AID 1920)
[17] = cells; type: functional, cell-based
[18] = Luminescence Cell-Based Dose Confirmation HTS to Identify Inhibitors of Platelet Dense Granule Release. [Related pubchem assays: 1663 (Primary HTS), 1678 (Summary of Project)]; type: functional
[19] = target: T5, Nuclear receptor subfamily 0 group B member 1 (Homo sapiens, UniProt P51843); type: functional, cell-based;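 note: HEK293T cells transfected with SF-1 and DAX-1 plus StAR promoter luciferase reporter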
T5 sequence (P51843 whole entry): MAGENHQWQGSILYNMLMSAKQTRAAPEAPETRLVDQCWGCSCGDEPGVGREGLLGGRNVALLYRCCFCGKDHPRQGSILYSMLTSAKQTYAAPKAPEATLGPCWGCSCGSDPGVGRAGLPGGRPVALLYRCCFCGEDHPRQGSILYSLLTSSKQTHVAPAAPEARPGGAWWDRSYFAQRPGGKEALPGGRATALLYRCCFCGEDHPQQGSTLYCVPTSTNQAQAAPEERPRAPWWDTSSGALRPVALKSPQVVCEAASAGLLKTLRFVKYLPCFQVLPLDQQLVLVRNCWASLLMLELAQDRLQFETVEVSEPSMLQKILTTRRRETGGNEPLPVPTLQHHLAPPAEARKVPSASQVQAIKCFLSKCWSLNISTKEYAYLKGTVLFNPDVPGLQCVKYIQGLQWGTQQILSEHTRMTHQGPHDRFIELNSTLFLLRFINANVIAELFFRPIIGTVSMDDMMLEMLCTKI

[20] = target: Luciferin 4-monooxygenase (Photinus pyralis, UniProt P08659); assay: inhibition of purified Photinus pyralis luciferase – biochemical, luminescence, dose response (AID 1891)
Sequence of Luciferin 4-monooxygenase (P08659 whole entry): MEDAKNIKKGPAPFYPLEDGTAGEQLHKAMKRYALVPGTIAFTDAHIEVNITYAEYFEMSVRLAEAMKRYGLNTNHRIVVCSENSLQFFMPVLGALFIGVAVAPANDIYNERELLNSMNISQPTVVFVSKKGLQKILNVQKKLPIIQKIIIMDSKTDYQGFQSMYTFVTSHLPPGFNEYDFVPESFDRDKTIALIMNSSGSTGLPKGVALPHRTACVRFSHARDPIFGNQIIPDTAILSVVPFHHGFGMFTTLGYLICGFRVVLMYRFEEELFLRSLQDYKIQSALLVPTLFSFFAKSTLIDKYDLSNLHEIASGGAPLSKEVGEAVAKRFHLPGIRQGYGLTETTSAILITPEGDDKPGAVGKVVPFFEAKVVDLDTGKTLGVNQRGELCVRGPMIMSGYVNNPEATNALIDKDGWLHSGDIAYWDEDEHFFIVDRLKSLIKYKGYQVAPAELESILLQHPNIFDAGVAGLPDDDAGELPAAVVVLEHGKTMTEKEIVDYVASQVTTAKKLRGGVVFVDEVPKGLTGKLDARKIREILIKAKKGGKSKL

Sequence of Beta-galactosidase (Q8VNN2 whole entry): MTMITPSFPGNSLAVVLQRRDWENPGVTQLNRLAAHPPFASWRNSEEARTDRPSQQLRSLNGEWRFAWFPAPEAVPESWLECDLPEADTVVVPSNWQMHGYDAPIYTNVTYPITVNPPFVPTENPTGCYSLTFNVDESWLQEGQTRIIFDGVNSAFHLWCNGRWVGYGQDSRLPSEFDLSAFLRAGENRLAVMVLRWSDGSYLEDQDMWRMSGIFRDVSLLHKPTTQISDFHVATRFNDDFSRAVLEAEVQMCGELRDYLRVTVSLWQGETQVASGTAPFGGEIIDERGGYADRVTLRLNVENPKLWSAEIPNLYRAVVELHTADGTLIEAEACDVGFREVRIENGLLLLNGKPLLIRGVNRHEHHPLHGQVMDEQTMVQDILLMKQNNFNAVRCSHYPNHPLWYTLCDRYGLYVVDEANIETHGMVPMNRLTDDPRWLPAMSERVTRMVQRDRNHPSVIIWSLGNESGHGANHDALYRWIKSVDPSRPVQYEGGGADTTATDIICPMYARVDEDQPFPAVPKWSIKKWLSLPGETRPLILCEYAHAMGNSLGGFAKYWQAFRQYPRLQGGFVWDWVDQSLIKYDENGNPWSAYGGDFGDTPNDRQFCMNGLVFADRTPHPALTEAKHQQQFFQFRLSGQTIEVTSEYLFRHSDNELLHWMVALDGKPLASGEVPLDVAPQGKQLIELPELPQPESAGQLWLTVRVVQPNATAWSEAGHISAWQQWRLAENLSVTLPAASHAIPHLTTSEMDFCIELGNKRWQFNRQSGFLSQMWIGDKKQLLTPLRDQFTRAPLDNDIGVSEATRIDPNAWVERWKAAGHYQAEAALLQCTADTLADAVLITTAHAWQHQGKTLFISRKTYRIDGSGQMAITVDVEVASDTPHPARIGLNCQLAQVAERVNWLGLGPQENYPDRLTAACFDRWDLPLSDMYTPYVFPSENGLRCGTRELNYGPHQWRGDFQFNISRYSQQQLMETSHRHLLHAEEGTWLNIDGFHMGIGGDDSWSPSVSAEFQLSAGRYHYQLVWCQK
Sequence of Mu-type opioid receptor (P35372 whole entry): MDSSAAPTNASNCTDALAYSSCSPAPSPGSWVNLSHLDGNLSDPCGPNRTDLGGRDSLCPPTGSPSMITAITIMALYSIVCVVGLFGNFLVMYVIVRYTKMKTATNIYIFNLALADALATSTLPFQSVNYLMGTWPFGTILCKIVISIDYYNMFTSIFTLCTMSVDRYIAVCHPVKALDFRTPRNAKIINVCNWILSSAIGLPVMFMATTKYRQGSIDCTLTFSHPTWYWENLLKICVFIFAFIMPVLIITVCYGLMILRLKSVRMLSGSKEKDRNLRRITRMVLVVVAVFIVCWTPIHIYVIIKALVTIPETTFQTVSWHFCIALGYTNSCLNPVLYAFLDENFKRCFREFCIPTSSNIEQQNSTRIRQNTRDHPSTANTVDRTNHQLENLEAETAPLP
T4 sequence (Q79MP6 whole entry): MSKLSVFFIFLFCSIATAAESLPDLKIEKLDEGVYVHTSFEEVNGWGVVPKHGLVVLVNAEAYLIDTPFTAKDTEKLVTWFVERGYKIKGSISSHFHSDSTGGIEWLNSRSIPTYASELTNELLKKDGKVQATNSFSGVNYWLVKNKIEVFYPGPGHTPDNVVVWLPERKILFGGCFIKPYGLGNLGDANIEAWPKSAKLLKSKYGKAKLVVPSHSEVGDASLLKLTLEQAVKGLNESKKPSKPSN
Sequence of 5-hydroxytryptamine receptor 2A (P35363 whole entry): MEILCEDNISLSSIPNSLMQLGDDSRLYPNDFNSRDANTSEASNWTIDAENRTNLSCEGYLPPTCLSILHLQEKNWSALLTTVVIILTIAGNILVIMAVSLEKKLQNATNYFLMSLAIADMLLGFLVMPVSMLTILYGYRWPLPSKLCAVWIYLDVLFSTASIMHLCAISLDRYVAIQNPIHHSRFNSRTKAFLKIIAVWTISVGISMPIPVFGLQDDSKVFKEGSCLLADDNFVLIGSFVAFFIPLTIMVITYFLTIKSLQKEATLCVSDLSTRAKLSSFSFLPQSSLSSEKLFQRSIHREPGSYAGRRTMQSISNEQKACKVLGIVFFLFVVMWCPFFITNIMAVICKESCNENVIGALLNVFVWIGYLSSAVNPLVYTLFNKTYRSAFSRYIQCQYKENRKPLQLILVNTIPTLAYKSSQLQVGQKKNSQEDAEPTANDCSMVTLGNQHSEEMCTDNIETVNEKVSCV
Sequence of Photoreceptor-specific nuclear receptor (Q9Y5X4 whole entry, the tested form may be a part): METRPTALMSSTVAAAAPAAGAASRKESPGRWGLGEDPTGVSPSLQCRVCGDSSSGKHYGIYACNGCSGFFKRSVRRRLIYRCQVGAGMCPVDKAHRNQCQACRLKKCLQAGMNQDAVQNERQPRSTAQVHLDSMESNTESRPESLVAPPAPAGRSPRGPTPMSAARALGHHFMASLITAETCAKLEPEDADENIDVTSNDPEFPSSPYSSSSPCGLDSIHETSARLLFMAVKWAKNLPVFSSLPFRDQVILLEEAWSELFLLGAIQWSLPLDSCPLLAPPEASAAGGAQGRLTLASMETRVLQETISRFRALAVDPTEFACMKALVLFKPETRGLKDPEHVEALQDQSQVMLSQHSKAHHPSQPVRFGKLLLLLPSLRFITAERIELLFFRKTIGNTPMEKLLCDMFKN
Sequence of Beta-lactamase (Salmonella choleraesuis (strain SC-B67), UniProt Q5J463) (Q5J463 whole entry): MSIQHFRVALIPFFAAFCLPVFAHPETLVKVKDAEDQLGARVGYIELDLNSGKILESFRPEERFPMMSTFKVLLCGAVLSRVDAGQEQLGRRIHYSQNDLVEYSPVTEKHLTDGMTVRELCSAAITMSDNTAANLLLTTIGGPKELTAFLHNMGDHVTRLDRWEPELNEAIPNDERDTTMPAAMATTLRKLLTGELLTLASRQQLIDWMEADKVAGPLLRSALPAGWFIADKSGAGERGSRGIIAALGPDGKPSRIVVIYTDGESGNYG
Sequence of Large T antigen (P03070 whole entry): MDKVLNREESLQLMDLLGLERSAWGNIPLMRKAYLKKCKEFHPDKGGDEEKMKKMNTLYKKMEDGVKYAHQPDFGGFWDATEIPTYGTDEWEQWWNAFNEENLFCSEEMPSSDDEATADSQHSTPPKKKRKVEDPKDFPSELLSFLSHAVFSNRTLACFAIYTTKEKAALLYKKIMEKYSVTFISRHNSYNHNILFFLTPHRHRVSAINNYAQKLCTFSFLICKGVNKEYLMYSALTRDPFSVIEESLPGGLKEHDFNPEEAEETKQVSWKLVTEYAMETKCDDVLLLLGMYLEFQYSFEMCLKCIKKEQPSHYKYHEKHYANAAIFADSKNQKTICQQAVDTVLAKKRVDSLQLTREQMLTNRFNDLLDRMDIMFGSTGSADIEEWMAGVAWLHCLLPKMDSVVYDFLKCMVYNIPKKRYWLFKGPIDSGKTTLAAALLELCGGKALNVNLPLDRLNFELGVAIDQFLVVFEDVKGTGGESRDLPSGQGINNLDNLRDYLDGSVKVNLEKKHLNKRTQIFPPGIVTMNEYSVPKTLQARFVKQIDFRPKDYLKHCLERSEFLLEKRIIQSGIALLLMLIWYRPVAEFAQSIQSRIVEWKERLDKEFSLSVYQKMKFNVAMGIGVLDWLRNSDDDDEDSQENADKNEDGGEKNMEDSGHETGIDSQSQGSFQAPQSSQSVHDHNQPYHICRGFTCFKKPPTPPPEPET

## CC1(C)C(C=C(Cl)Cl)C1C(=O)N1CCN(Cc2ccccc2)CC1 (stereo not given)
[1]
  EC50: 92.5 µM (inactive)
[2]
  EC50: 1.21 µM (active)

## O=C(CCN1CCN(c2ccccc2F)CC1)Nc1ccc2c(c1)OCO2
[1]
  EC50: 92.5 µM (inactive)
[3]
  EC50: > 120 µM (not active)
[2]
  EC50: 76.1 µM (inactive)
[4]
  EC50: > 120 µM (not active)
[5]
  EC50: > 120 µM (not active)

## CCSC1(SCC)N=C(N)C2(C#N)C(c3ccc(OC)c(OC)c3OC)C12C#N (stereo not given)
[6]
  EC50: > 40 µM (inactive)
[7]
  EC50: 6.63 µM (active)
[8]
  IC50: > 100 µM (active)
[9]
  IC50: 27.5 µM (not active)

## O=C(CN1C(=O)C2CC=CCC2C1=O)OCC(=O)c1ccc(Cl)c([N+](=O)[O-])c1 (stereo not given)
[6]
  EC50: > 40 µM (inactive)
[9]
  IC50: 16.3 µM (active)

## COc1cccc(N2CCN(c3nc(O)cc(-c4ccccc4C)n3)CC2)c1
[10]
  IC50: 94.2 nM (active)
[11]
  EC50: > 91.2 µM (inactive)
[12]
  EC50: > 91.2 µM (inactive)

## Cc1ccc(NC(=O)CSc2nc(=O)n(CCCN3CCOCC3)c3c2CCCC3)cc1F
[13]
  AC50: 3.18 µM (active)

## COc1ccccc1NC(=O)N[C@@H]1CC[C@H](CCn2cc(-c3cccnc3)nn2)O[C@H]1CO
[13]
  AC50: 2.59 µM (active)

## O=C(O)Cn1cccc1C(=O)c1ccccc1
[14]
  IC50: > 59.6 µM (inactive)
[15]
  IC50: > 59.6 µM (inactive)
[16]
  IC50: > 59.6 µM (inactive)

## C=C[C@@]1(C)CC(=O)[C@]2(O)[C@@]3(C)[C@@H](O)CCC(C)(C)[C@@H]3[C@H](O)[C@H](OC(C)=O)[C@@]2(C)O1 [COLFORSIN]
[17]
  IC50: > 67.5 µM (inactive)
[18]
  EC50: < 88 nM (active)
[19]
  IC50: 1.73 µM (active)
[20]
  EC50: > 112 µM (not active)
